Data taken from PMC9800617, “Pharmacokinetics/pharmacodynamics of polymyxin B in patients with bloodstream infection caused by carbapenem-resistant Klebsiella pneumoniae” (Frontiers in Pharmacology, 2022).
Several values for one entry are separate records, joined by “and”; a condition that tells them apart may be missing. Identical values can stand only once. Like-named read-outs stand apart in the source and are kept apart here. Bridge positions count the residues as written; N and C are the ends. Square brackets hold non-standard residues; d marks the D form. Peptide text beside a SMILES is read from it. * marks the point of attachment. X1 = CC[C@H](C)CCCCC(=O)*; Dab = NCC[C@H](N)C(=O)O

Tests used:
[1] = tested on: carbapenem-resistant K. pneumoniae (CRKP) bloodstream infections; assay: Microbiological and clinical efficacy in CRKP bloodstream infection; type: in vivo, human; details: for Microbiological efficacy: blood culture; for Clinical efficacy: evaluated when the subject withdrew or completed the study; for 28-day survival: 14 days of treatment
Experimental: This prospective, multi-centered, single-armed and open-label clinical trial was conducted in accordance with Good Clinical Practice, International Conference on Harmonization guidelines, and in compliance with the World Medical Association Declaration of Helsinki and was approved by the Ethics Committee of Sir Run Run Shaw Hospital, College of Medicine, Zhejiang University, Hangzhou, China, and other participating centers ([Williams, 2008]). Written informed consent was obtained from each patient or his/her representative before enrollment. Patients with CRKP-positive blood cultures and with an estimated glomerular filtration rate (eGFR) of 60–120 ml/min were included. The inclusion and exclusion criteria are shown in Supplementary Table S1. This clinical trial was registered at http://www.chictr.org.cn (registration number: ChiCTR 1900021137) and was conducted across 2019 and 2020.
(§1) The definition of different population groups for safety and efficacy analysis is shown in Supplementary Table S2. Briefly, safety was evaluated based on adverse events (AEs) in patients who received at least one polymyxin B dose. Adverse events were recorded based on patient self-reporting as well as abnormal laboratory test results including serum chemistry and routine blood and urinary testing. Acute kidney injury (AKI) was graded according to the RIFLE criteria ([Bellomo et al., 2004]). The primary endpoint was culture-confirmed bacterial eradication of CRKP from the blood evaluated by blood cultures taken every 3 days following the first dose of polymyxin B administration. Secondary endpoints were clinical outcome (clinical cure or improvement, Supplementary Table S3) evaluated in patients who received at least 3 days of polymyxin B treatment, and 28-day all-cause mortality evaluated in patients who completed 14 days of polymyxin B treatment.

[2] = Safety (adverse events, renal function) in BSI patients; type: in vivo, human
Experimental: as §1

[3] = cited from earlier work
Experimental: Our study is the first to specifically examine patients with BSI using the recommended dosage regimen of polymyxin B (2.5–3.0 mg/kg/d) ([Tsuji et al., 2019]). Previous studies utilizing PPK models to examine polymyxin B PK have included primarily critically ill patients with various medical conditions or patients with cystic fibrosis, and have employed a wide range of doses (0.45–3.38 mg/kg/day) ([Sandri et al., 2013]; [Avedissian et al., 2018]; [Kubin et al., 2018]; [Manchandani et al., 2018]; [Miglis et al., 2018]; [Yu et al., 2021]).

[4] = healthy Chinese subjects, ref Liu et al., 2021, cited from earlier work
Source text: Neurotoxicity is another major dose-limiting factor for the polymyxins, although it often goes unreported given many patients receiving polymyxins are mechanically ventilated which makes assessment difficult. Polymyxin-induced neurotoxicity is very likely dose-dependent and is characterized by symptoms such as dizziness, vertigo, visual disturbances, confusion, hallucinations, seizures, ataxia, facial and peripheral parenthesis, and pruritus ([Falagas and Kasiakou, 2006]; [Weinstein et al., 2009]; [Wahby et al., 2010]; [Honore et al., 2013]). While neurologic side effects such as parenthesis h ...

[5] = cited from earlier work; remark: listed apart in the source
Experimental: Monte Carlo simulations were conducted for the probability of target attainment (PTA) analysis to guide the selection of optimal dosage regimens. Different dosage regimens were simulated by the PPK model and AUCss,24h were calculated. […] The maximal reductions in colony f ... || FIGURE 4 Probability of target attainment for different dosage regimens of polymyxin B against common carbapenem-resistant organisms according to PK/PD simulations. (A) Loading dose for three bacterial species. […] Or gani s m Dose Dosing MIC (mg/L) (m g/ k g) frequen c y 0.25 0.5 1 2 4 8 2 Loading 100.0 100.0 99.6 40.5 0 0 2.5 dose 100.0 100.0 100.0 71.0 2.0 0 Klebsiella 0.5 100.0 99.7 40.5 0.2 0 0 pneum oniae 0.75 Maintenance 100.0 100.0 90.6 11.0 0 0 1.0 dose, q12h 10 ...

[6] = tested on: K. pneumoniae; details: ref Landersdorfer et al., 2018, cited from earlier work
Experimental: Monte Carlo simulations were conducted for the probability of target attainment (PTA) analysis to guide the selection of optimal dosage regimens. Different dosage regimens were simulated by the PPK model and AUCss,24h were calculated. […] The maximal reductions in colony f ... || FIGURE 4 Probability of target attainment for different dosage regimens of polymyxin B against common carbapenem-resistant organisms according to PK/PD simulations. (A) Loading dose for three bacterial species. […] In preclinical studies, the fAUC/MIC required for various magnitudes of bacterial killing varied among bacterial strains and infection sites. […] Against P. aeruginosa and A. b ... || (+ 2 further places)

[7] = nine patients, 2.5 mg/kg loading, 1.25 mg/kg/12 h iv
[8] = healthy subjects, ref Liu et al., 2021

Structure (SMILES): CC[C@H](C)CCCCC(=O)N[C@@H](CCN)C(=O)N[C@H](C(=O)N[C@@H](CCN)C(=O)N[C@H]1CCNC(=O)[C@H]([C@@H](C)O)NC(=O)[C@H](CCN)NC(=O)[C@H](CCN)NC(=O)[C@H](CC(C)C)NC(=O)[C@@H](Cc2ccccc2)NC(=O)[C@H](CCN)NC1=O)[C@@H](C)O [polymyxin B] (X1-[Dab]T[Dab][Dab][Dab][dF]L[Dab][Dab]T; lactam 4-C)
- patients alive 28 days after the commencement of therapy ([1]; 4 patients who completed the 14-day treatment protocol): all 4
- clinical cure or improvement ([1]; 6/8 patients): 75%
- time to negative blood cultures after commencing therapy ([1]; all 8 patients evaluated for microbiological efficacy): ≤ 3 days
- Microbiological efficacy ([1]; patient 1): Eradication
- Clinical efficacy ([1]; patient 1): Not improved
- Microbiological efficacy ([1]; patient 2): Eradication
- Clinical efficacy ([1]; patient 2): Improved
- 28-day survival ([1]; patient 3): Yes
- Microbiological efficacy ([1]; patient 3): Eradication
- Clinical efficacy ([1]; patient 3): Cure
- Microbiological efficacy ([1]; patient 5): Eradication
- Clinical efficacy ([1]; patient 5): Improved
- 28-day survival ([1]; patient 6): Yes
- Microbiological efficacy ([1]; patient 6): Eradication
- Clinical efficacy ([1]; patient 6): Cure
- 28-day survival ([1]; patient 7): Yes
- Microbiological efficacy ([1]; patient 7): Eradication
- Clinical efficacy ([1]; patient 7): Cure
- Microbiological efficacy ([1]; patient 8): Eradication
- Clinical efficacy ([1]; patient 8): Improved
- 28-day survival ([1]; patient 9): Yes
- Microbiological efficacy ([1]; patient 9): Eradication
- Clinical efficacy ([1]; patient 9): Failure
- clinical cure or improvement ([1]; patients evaluated for efficacy (n = 8)): 6 of 8
- incidence of polymyxin B-induced AKI (RIFLE criteria) ([2]; 5/9 patients): 55.6%
- patients with at least one of neurotoxicity, nephrotoxicity, hyperpigmentation ([2]; 8/9 patients): 88.9%
- abdominal pain ([2]; during polymyxin B treatment, all patients): no abdominal pain was reported by any patient
- Hyperpigmentation, patients [2, 7]: 1/9
- Nephrotoxicity, patients [2, 7]: 5/9
- Neurotoxicity, patients [2, 7]: 5/9
- Study completion per protocol (Withdrawal reasons) ([2]; patient 1, treatment duration 6 days): Withdraw (AKI)
- Study completion per protocol (Withdrawal reasons) ([2]; patient 2, treatment duration 6 days): Withdraw (AKI)
- Study completion per protocol (Withdrawal reasons) ([2]; patient 3, treatment duration 14 days): Yes
- Study completion per protocol (Withdrawal reasons) ([2]; patient 4, treatment duration 1 day (loading dose only)): Withdraw (pruritus and numbness on face and head, ataxia)
- Study completion per protocol (Withdrawal reasons) ([2]; patient 5, treatment duration 5 days): Withdraw (AKI, pruritus and numbness on face and head, ataxia)
- Study completion per protocol (Withdrawal reasons) ([2]; patient 6, treatment duration 14 days): Yes
- Study completion per protocol (Withdrawal reasons) ([2]; patient 7, treatment duration 14 days): Yes
- Study completion per protocol (Withdrawal reasons) ([2]; patient 8, treatment duration 4 days): Withdraw (AKI, pruritus and numbness on face and head, ataxia)
- Study completion per protocol (Withdrawal reasons) ([2]; patient 9, treatment duration 14 days): Yes
- neurotoxicity among conscious patients ([2]; seven conscious patients (two sedated)): Five of seven and 5 of 7
- clearance [3, 8]: 0.433 ± 0.067 mL/min/kg
- half-life [3, 8]: 5.55 ± 0.942 h
- volume of distribution [3, 8]: 0.204 ± 0.026 L/kg
- dose excreted unchanged in the urine ([3]; ref Zavascki et al., 2008): ≤ 4%
- subjects with perioral paraesthesia, dizziness, and numbness of extremities ([4]; single dose 0.75 mg/kg, 1-h infusion, 7 of 10): 70%
- subjects with perioral paraesthesia, dizziness, and numbness of extremities ([4]; single dose 1.5 mg/kg, 1.5-h infusion): all subjects
- unbound fraction in plasma ([5]; as used in PK/PD simulations, given as fraction): 0.42
- unbound fraction (f) in human plasma ([5]; human plasma, ref Sandri et al., 2013): 42%
- fAUC24h/MIC target ([6]; 1-log10 reduction against K. pneumoniae, murine thigh infection): 17.4
- target values of fAUC/MIC ([6]; 1 log10 kill, mouse thigh infection, three strains of K. pneumoniae): 3.7–28.0
- 2 log10 kill ([6]; mouse thigh infection, three strains of K. pneumoniae): 2 log10 kill could not be achieved with even the highest tolerated dose
